Assay results published in patent US10118943B2, “Compounds and methods for inhibiting cell death” (Ramot at Tel-Aviv University Ltd., priority 2012, dated 2018).
“Also recorded” adds a separate entry of the source.

Legend:
[1] = system: primary cortical neurons; assay: PSD-95 density in primary cortical neuron culture; type: cell-based, rat; settings: neurons treated for 2 hrs
Protocol: Methods: 1. Primary cultures of neurons were prepared as follows. Newborn rats were sacrificed on postnatal day 1. Cerebral cortex tissue was then dissected and dissociated individually from each pup with the Papain Dissociation System (PDS; Worthington Biochemical Corporation) according to the manufacturer's instructions. 2. Cells were fixed with ice cold methanol, blocked with 2% bovine serum albumin (BSA) and 5% normal goat serum in Tris buffered saline containing tween 20 (TBS-T; 20 mM Tris pH 7.5, 136.8 mM NaCl, and 0.05% v/v Tween 20), and incubated with primary antibody followed by the appropriate secondary antibody. 3. Primary antibodies that were used include: monoclonal anti PSD-95 (ab-2723, Abcam), monoclonal anti Tyr-α-tubulin antibody (YL1/2) (VMA1864, Abcys, Paris, France), polyclonal anti Glu-α-tubulin antibody (L4) (AbC0101, Abcys, Paris, France), DyLight 488-labeled secondary goat anti-mouse IgG, DyLight 633-labeled secondary goat anti-rabbit IgG (KPL, Gaithersburg, Md., USA), Cy3-conjugated secondary goat anti-Rat IgG, (Jackson ImmunoResearch). 4. Images were collected with a Leica SP5 confocal laser scanning microscope (Mannheim, Germany) with 63× oil immersion optics, laser lines at 488, 561, 633 nm. Identical confocal laser scanning microscopy (CLSM) parameters (e.g., scanning line, laser light, gain, and offset etc.) were used for control and NAP treated cells.
For instance, a PSD-95 expression assay using primary cortical neuron cultures established from suitable animals may be performed to confirm a compound's activity in promoting cell plasticity. More specifically, primary cultures of neurons are prepared by first taking cerebral cortex tissue from newborn rats on postnatal day 1. The cerebral cortex tissue is then dissected and dissociated individually from each animal. Cells are fixed with ice cold methanol, blocked (e.g., with bovine serum albumin (BSA) and normal goat serum), and incubated with primary antibody (e.g., monoclonal antibody against PSD-95), optionally followed by the appropriate secondary antibody for imaging purposes. Images of primary neuronal cultures are taken and compared between cultures with or without being exposed to a test compound. An increased PSD-95 expression is indicative of the test compound being capable of promoting or protecting cell plasticity, especially neuronal plasticity.
Cerebral cortex tissue from newborn rats was dissected and dissociated individually from each pup with the Papain Dissociation System (PDS), (Worthington Biochemical Corporation) according to the manufacturer's instructions. Cortical neurons were maintained in Neurobasal medium (NB), (Gibco) supplemented with NeuroCult B27-SM1 ([…]), 1% Glutamax (Gibco), and grown on poly-D-lysine-coated cell culture glass cover slips.
Images were collected with a Leica SP5 confocal laser scanning microscope (Mannheim, Germany) with 63× oil immersion optics, laser lines at 488, 561, 633 nm or with LSM 510 META (Zeiss, Jena, Germany) confocal laser scanning microscope with 63× oil immersion optics, laser lines at 488, 568, 633 nm. When comparing fluorescence intensities, identical CLSM parameters (e.g., scanning line, laser light, gain, and offset etc.) were used. All of the fluorescent signals acquired were above the autofluorescent background as measured from a control slide stained with secondary antibody without a primary antibody. To compare the relative levels of protein expression, the average integrated density (AID) image analysis procedure was used for cell immunostains. In brief, integrated density is defined by the sum of the values of the pixels in the selected region of interest (ROI). This is equivalent to the product of Area and Mean Gray Value. AID for the positive stained area was determined by measuring the fluorescent intensity of the ROI, which is above the positive cut-off intensity. […]

[2] = system: ADNP+/− mice; assay: Object recognition test in ADNP-deficient mice; type: in vivo, mouse; settings: intranasal, twice a day, 1 month, ADNP+/− male mice
Description: All procedures involving animals were approved by the Animal Care and Use Committee of Tel Aviv University and the National Institutes of Health (Bethesda, Md.). ADNP heterozygous mice, a model for cognitive impairments (Vulih-Shultzman et al., 2007, J. Pharmacol. Exp. Ther. 323:438-449), were housed in a 12-h light/12-h dark cycle facility, and free access to rodent chow and water was available.
SKIP (SEQ ID NO:6) treatment included daily intranasal administrations over a 1 month period to 5-month-old male mice (2 μg/5 μl/mouse/day). For intranasal administration, the peptide was dissolved in a vehicle solution, in which each milliliter included 7.5 mg of NaCl, 1.7 mg of citric acid monohydrate, 3 mg of disodium phosphate dihydrate, and 0.2 mg of benzalkonium chloride solution (50%). SKIP (SEQ ID NO:6) or vehicle solution (DD) was administered to mice hand-held in a semisupine position with nostrils facing the investigator. A pipette tip was used to administer 5 μl/each nostril. The mouse was handheld until the solution was totally absorbed (˜10 s). Nasal SKIP (SEQ ID NO:6) application was performed daily, twice a day, for 1 month (5 days a week). After 1 month, SKIP (SEQ ID NO:6) was applied 2 h before the behavioral tests (described below).
The test includes 2 consecutive days of habituation (five minutes per day) and the experimental day which consists of the three phases. The test was conducted two hours after the daily intranasal SKIP (SEQ ID NO:6). During the first phase (Phase 1, habituation phase), the open field apparatus (arena of 50×50 cm) contained two identical objects (samples) and a mouse was placed in the apparatus facing the wall and allowed to freely explore the objects. At the end of the 5-min session of Phase 1, the mouse was put back into its home cage for 3 hours. […] The time spent sniffing/touching each object was measured. The data was analyzed using the following formula: D1=b−a, when ‘a’ designated the time of exploration of the familiar object and ‘b’ designated the time of exploration of the novel object. […]

NAPVSKIPQ (synthetic novel peptide core sequence SKIP derived from hybrid microtubule end-binding protein 3 (EB3)- binding microtubule plus-end tracking proteins (+TIPs) and activity-dependent neurotrophic factor (ADNF) active core site (NAP))
derivative peptides effect on PSD-95 density vs vehicle controls (FIG. 10c) [1]: paralleled to NAPVSIPQ activity; also recorded: significantly increased | object recognition, Phase 2 short retention (discrimination index D1) [2]: improved the memory
